Results taken from patent US8445006B2, “Biomolecular coating for implants” (Georgia Tech Research Corporation, priority 2006, dated 2013).

Assays:
FAK [1] = experiment: FAK phosphorylation Western blotting on ligand-tethered SAMs; assay type: cell-based, murine
Procedure: (§1) Cells were detached and gently agitated in serum-free suspension for 45 min to reduce background. Cells were then seeded at 200 cells/mm^2 serum-free for 1 h. Cells were lysed in RIPA buffer (1% Triton X-100, 1% sodium deoxycholate, 0.1% SDS, 150 mM NaCl, 150 mM Tris-HCl (pH 7.2), 350 μg/ml PMSF, 10 μg/ml leupeptin, and 10 μg/ml aprotonin) for 20 min on ice. Samples were pipetted up and down 20 times and centrifuged at 8000 g for 10 min to shear DNA and isolate protein contents. Total protein was quantified using micro-BCA (Pierce). Equal amounts of protein were boiled for 10 min in Laemmli buffer and separated by SDS-PAGE on a 7% gel, transferred to nitrocellulose membranes, and blocked with Blotto (5% nonfat dry milk, 0.20% Tween-20) overnight at 4° C. Membranes were gently rocked in antibodies against FAK and specific phosphorylated FAK tyrosine residues (anti-total FAK at 1 μg/ml, anti-FAK pY397 at 0.35 μg/ml, anti-FAK pY576 at 0.5 μg/ml) for 1 h. After washing with TBS-Tween (20 mM Tris HCl pH 7.6, 137 mM NaCl, 0.1% Tween-20), secondary antibody (biotin-conjugated anti-rabbit IgG; 1:20,000) was added for 1 h, followed by alkaline phosphatase-conjugated anti-biotin antibody (1:10,000) in Blotto. Immunoreactivity was assessed by ECF fluorescent substrate. FAK bands were visualized by a Fuji Image Analyzer and phosphorylation levels normalized to total FAK.

[2] = system: bone marrow stromal cells; experiment: Alkaline phosphatase biochemical activity assay; assay type: cell-based, rat
Procedure: Primary bone marrow stromal cells were harvested from the femora of young adult male Wistar rats in accordance with an IACUC-approved protocol. After excision, hindleg femora and tibiae were cleared of soft tissue and rinsed in growth medium (α-minimal essential medium supplemented with 10% fetal bovine serum, 1% penicillin-streptomycin, and 0.3 μg/ml amphotericin B). The ends of the long bones were then removed and the marrow space was flushed with culture medium (3-5 ml), using a syringe with an 18-gauge needle. Marrow isolates were pooled, centrifuged, resuspended in growth medium, and seeded for adhesion-dependent selection on tissue culture polystyrene dishes. Non-adherent hematopoietic cells were removed during subsequent medium exchanges, which occurred every other day. Cells were subcultured every two days according to standard techniques. For in vitro osteogenic assays, cells were seeded at 10,000 cells/cm^2 in growth medium. […]
ALP activity was quantified at 7 days in culture using a modification of the Sodek and Berkman method. […] After sonication and centrifugation, the protein concentration was quantified using a Pierce Micro BCA protein assay kit. […] After a 60 min incubation at 37° C., the fluorescence was read at an excitation of 360 nm and an emission of 465 nm on an HTS 7000 Plus BioAssay Reader (Perkin Elmer). […]

MC3T3-E1 cells = experiment: Centrifugation cell adhesion assay on ligand-tethered SAMs; assay type: cell-based, murine; settings: for ADH50 (ligand density required for half-maximal adhesion): ligand tethered to SAMs, MC3T3-E1
Procedure: MC3T3-E1 murine immature osteoblast-like cells (Riken Cell Bank, Hirosawa, Japan) were used because of their expression of multiple integrins, including alpha5beta1, alpha2beta1, and alphaVbeta3. Cells were maintained at 37° C. in α-MEM supplemented with 10% FBS and 1% penicillin-streptomycin and passaged every 2-3 days via standard culture techniques.
Self-assembled monolayers (SAMs) of alkanethiols on gold were used to present well-defined, ordered surfaces with anchoring groups within a non-fouling background. Tri(ethylene glycol)-terminated alkanethiol (HS—(CH2)11—(OCH2CH2)3—OH; EG3) and carboxylic acid-terminated alkanethiol (HS—(CH2)11—(OCH2CH2)6—OCH2COOH; EG6-COOH) were previously synthesized and characterized. Gold-coated substrates were prepared by sequential deposition of titanium (100 Å) and gold (200 Å) films via an electron beam evaporator (Thermionics Laboratories, Hayward, Calif., 2×10^−6 Torr, 1 A/s) onto clean 6-well plate lids or glass coverslips. Mixed SAM surfaces were prepared on substrates by immersing in a 1.0 mM mixed solution of EG3/EG6-COOH thiols (4 h). Peptide ligands were tethered using standard peptide chemistry. Briefly, following washing in ethanol and ultrapure H2O, SAMs were incubated in 2.0 mM EDC and 5.0 mM NHS in 0.1 M 2-(N-morpho)-ethanesulfonic acid and 0.5 M NaCl (pH 6.0), and subsequently immersed in a 20 mM solution of 2-mercaptoethanol in deionized H2O. Adhesive ligands in PBS were then incubated on the activated supports for 30 min and the unreacted surface NHS esters were then quenched in 20 mM glycine. Finally, the surfaces were blocked in 1% heat-denatured bovine serum albumin (BSA) and then incubated overnight in DPBS to reduce nonspecific protein adsorption.
A modification of a centrifugation assay was used to apply controlled detachment forces to cells adhering to engineered surfaces. Multi-wells of engineered surfaces were created on gold-coated polystyrene plate lids using silicone gaskets (Grace Bio-Labs, Bend, Oreg.). Mixed SAMs were assembled and ligands tethered at varying densities. MC3T3-E1 cells were labeled with […] calcein-AM, a membrane-permeable green fluorescent dye, in 2 mM dextrose-DPBS for 30 min and resuspended in α-MEM with 10% FBS. Cells were seeded onto the surfaces at 200 cells/mm^2, and allowed to attach for 1 h at 37° C. For blocking antibody experiments, cells were incubated in the presence of function-perturbing antibodies (10 μg/ml) for 10 min with gentle agitation prior to cell seeding. Before centrifugation, cell images were taken using a Nikon TE-300 fluorescence microscope and Spot RT digital camera. Wells were then filled completely with dextrose-PBS, sealed, inverted, and centrifuged for 5 min at a prescribed speed on a Beckman Allegra 6 centrifuge (GH 3.8 rotor) to apply normal detachment forces. Media was then gently aspirated from the wells, and wells were refilled for post-spin image collection. Post/pre-spin cell ratios were determined by image analysis, and this adhesive fraction was plotted against ligand surface density to obtain cell adhesion profiles.

FAK [3] = experiment: FAK phosphorylation on ligand-tethered brush surfaces with integrin blocking antibodies; assay type: cell-based, rat; settings: for effect of integrin blocking antibodies on FAK phosphorylation: anti-α5 and anti-β3 antibodies
Procedure: as §1
FAK is an intracellular signaling molecule involved in integrin-mediated signal transduction and the osteogenic differentiation pathway. Phosphotyrosine-specific antibodies were used to examine the activation state of three important tyrosines in FAK: Y397 (autophosphorylation site), Y576 (essential for maximal kinase activity), and Y861 (major Src phosphorylation site) (FIG. 13C). […] These differences in integrin binding specificity and FAK activation modulate cell signaling pathways and higher order cellular activities.

[4] = maximum ligand density, normalized to unblocked controls
[5] = vs RGD-functionalized brushes and serum-exposed titanium

Substance: FNIII7-10: monobiotinylated recombinant fibronectin fragment spanning the 7-10th type III repeats of fibronectin; α5β1 integrin ligand
- FAK tyrosine-861 phosphorylation (FAK [1]; among both peptide-tethered surfaces): phosphorylated at similar levels
- FAK tyrosine-397 phosphorylation (FAK [1]; maximum peptide densities, vs RGD-tethered surface): increased almost threefold
- FAK tyrosine-576 phosphorylation (FAK [1]; vs RGD-functionalized support): significantly higher
- alkaline phosphatase activity ([2]; tethered brushes vs RGD-functionalized surfaces): higher alkaline phosphatase activity
- ADH50 (ligand density required for half-maximal adhesion) (MC3T3-E1 cells): 70 fmol/cm^2
- adhesion with blocking antibodies against α5β1 integrin (MC3T3-E1 cells; [4]): reduced adhesion to background levels
- reduction of adhesion by antibodies against β3 integrin subunit (MC3T3-E1 cells; [4]): did not alter adhesion significantly
- effect of integrin blocking antibodies on FAK phosphorylation (FAK [3]): blocking antibodies against α5, but not β3, reduced the levels of phospho-Y397 and Y576
- FAK Y397 phosphorylation (FAK [3]; [5]): higher phosphorylation levels
- FAK Y576 phosphorylation (FAK [3]; [5]): higher phosphorylation levels

Substance: GGYGGGPC(GPP)5GFOGER(GPP)5GPC [GFOGER peptide]
- ALP activity ([2]; 7 days, adsorbed coating vs untreated titanium): elevated levels of activation

Substance: GRGDSPC [RGD peptide, linear RGD oligopeptide purchased from BACHEM; primarily supports αvβ3-mediated adhesion, reference compound]
- ADH50 (ligand density required for half-maximal adhesion) (MC3T3-E1 cells): 2300 fmol/cm^2
- adhesion with blocking antibodies against α5β1 integrin (MC3T3-E1 cells; [4]): only slightly reduced adhesion
- effect of integrin blocking antibodies on FAK phosphorylation (FAK [3]): only the anti-β3 antibody reduced FAK phosphorylation
- FAK Y861 phosphorylation (FAK [3]; relative to FNIII7-10-tethered surface): elevated
